Values joined by “and” are separate entries in the source; they are usually repeats but may differ in a detail not shown here. Equal values may be shown once.
Key:
[1] = Chronic reproduction toxicity test (OECD 211) with passive dosing; assay type: in vivo, Daphnia magna; set-up: % inhibition, avr. of vessels: concentration or dose not given beside the values; conditions: Daphnia magna, in vivo, other: waterborne exposure by passive dosing from PDMS disks, 21-day test
Description: (§1) Chronic toxicity tests with D. magna were performed according to the OECD guideline 211^2 using the passive dosing method. Two days before the tests, the exposure solution was predosed by shaking 10 PDMS disks loaded with the test substance in 1 L of medium for 48 h. Each test vessel (250 mL) was first flushed with the dosed solution to equilibrate the vessel walls, then filled with 100 mL of test solution, one PDMS disk, and one juvenile D. magna (<24 h old). The tests were conducted in loosely closed bottles to allow for adequate gas exchange and limit evaporation. The exposure medium was changed three times per week, and the animals were fed D. subspicatus daily (0.2 mg C/Daphnia/day). The number of offspring per adult and behavioral or physiological effects (e.g., size, movement, unhatched eggs) were recorded daily (except weekends). Dissolved oxygen, pH and temperature were also measured each week.
(§2) Tests were performed under static conditions (20 °C, 16:8 h light/dark cycle, 1 klux). Each compound was tested in 10 replicates for controls and limit tests (a single high concentration exposure to screen for significant toxic effects) and with 6 or 10 replicates for concentration–response tests. Reuse of silicone disks was included in some experiments (Table S3). Reproductive inhibition was assessed by counting offspring over 21 days. The number of offspring per mother in treatment groups was compared to controls, and the percent inhibition per replicate was used to generate concentration–response curves. A minimum of five concentrations per compound were tested to determine EC10, EC20, and EC50 values. For each test, three sets of polymers were rotated between loading, dosing, and exposure stages (Figure S2). Initial (before animal and food addition) and final (after 2–3 days of exposure, just before the medium change) water concentrations (CW) were monitored, with the latter collected after centrifugation to remove biomass (e.g., algae, carapaces, or feces).
(§3) All data are presented as average ± standard deviation. Student’s t test was used to analyze significance (p-value >0.05 considered insignificant). Concentration–response curve parameters (effective concentrations and confidence limits) and plots were generated using GraphPad Prism software (V6.01, GraphPad Software, La Jolla, CA, USA). The exposure concentrations were log10 transformed before fitting. Then a four parameters logistic model with variable slope was used to obtain EC10, EC20 and EC50 (see section S5 in SI file for details). Effective chemical activities (EA50) for chronic toxicity were calculated as follows: [drawing 1] 1 […]
(§4) S5. Concentration-response curve (CRC) fitting procedure
(§5) GraphPad Prism version 9.5.1 was used to fit CRC and obtain EC10, EC20, EC50 values and their confidence intervals. The exposure concentrations were log10 transformed before fitting. Then a four parameters logistic model with variable slope was used that describes the response as a function of following four parameters: minimum response (the Bottom), maximum response (the Top), the concentration required to cause a response half-way between the minimum and maximum (the EC50) and the slope of the curve […]
(§6) concentration. The Top was constrained to 100, the Bottom was constrained to 0, the HillSlope was not […]
(§7) !"# %& = !"# %&* − , × !"# 3 * 4
(§8) (, + ,((!"# %&'(<=)×-.!!/!"01)
(§9) Figure S7 Concentration-response curves of four NSO-PAHs based on reproductive inhibition during 21-day chronic toxicity tests with D. magna.
(§10) (1 picture or pasted object on this page, not shown here)

Daphnia magna = experiment: as above; assay type: in vivo; set-up: % inhibition, avr. of vessels: concentration or dose not given beside the values; conditions: for EC10: 21-day reproduction inhibition; for #offspring per mother, Total: single vessels (replicates); for #dead offspring per mother, Total: single vessels; for wet weight of parent daphnids, change relative to control: end of 21-d exposure
Description: as §1, §2, §3, §4, §5, §6, §7, §8, §9, §10

D. magna = experiment: PNEC and risk quotient estimation; set-up: species or system Daphnia magna; conditions: environmental concentration of surrogate (CRB, DBF, DBT) / PNEC
Description: To ensure a precautionary approach, an AF of 100 was applied, which accounts for interspecies variability and uncertainties in extrapolating laboratory findings to real-world conditions.
Environmental concentration (EC) data are obtained from A CRB, B DBF, and C DBT by choosing the highest
concentration that remains below the solubility limit of the respective NSO-PAH, as described in Reference 24.

[2] = cited from earlier work
[3] = 21-day reproduction test, sheet Test 4-BNF, last treatment block, single replicate vessels 1-6
[4] = BNF avr. medium concentration 0.77 µg/L, 21 days
[5] = BNF avr. medium concentration 2.99 µg/L, 21 days

c1ccc2c(c1)ccc1oc3ccccc3c12 [BNF, benzo[b]naphtho[1,2-d]furan]
mortality at 21 days, 0.3 µg/L ([1]; 0.3 µg/L (Fig. S8), read-out: % offspring mortality of total offspring): 0.3% | mortality at 21 days, 0.8 µg/L ([1]; 0.8 µg/L (Fig. S8), read-out: % offspring mortality of total offspring): 0% | mortality at 21 days, 1.5 µg/L ([1]; 1.5 µg/L (Fig. S8), read-out: % offspring mortality of total offspring): 0.4% | mortality at 21 days, 3 µg/L ([1]; 3.0 µg/L (Fig. S8), read-out: % offspring mortality of total offspring): 0% | mortality at 21 days, 4.4 µg/L ([1]; 4.4 µg/L (Fig. S8), read-out: % offspring mortality of total offspring): 0.7% | mortality at 21 days ([1]; at higher exposure levels, read-out: offspring mortality): < 1% | EC10 (Daphnia magna; 97.5-2.5% confidence interval in brackets): 0.91 (0.35-1.67) μg L^-1 | EC10 (Daphnia magna; confidence interval in brackets): 4.17 (1.60-7.63) nmol L^-1 | % inhibition, avr. of vessels (Daphnia magna; 21-day reproduction test, sheet Test 4-BNF, last treatment block, average of 6 vessels): 35.3% | % inhibition (of reproduction, per vessel) (Daphnia magna; [3]): 17.3% and 34.4% and 37.2% and 35.8% and 67.2% and 20.1% | Total #dead offspring per mother (per vessel) (Daphnia magna; [3]): 1 and 0 | growth of parent D. magna (wet weight) (Daphnia magna; 21-day test, p-value <0.05): significantly inhibited D. magna growth | %offspring mortality (Daphnia magna; 21 days): 0.73% | #average live offspring (Daphnia magna; 21 days, mean of 6 vessels, sheet Test 4-BNF, last treatment block): 45 | LOEC (lowest observed effect concentration, reproduction inhibition) (Daphnia magna; 21 days, p-value <0.05 vs controls): 3.0 μg L^–1 | #total live offspring (Daphnia magna; 21 days, sum of 6 vessels, sheet Test 4-BNF, last treatment block): 272 | #offspring per mother, Total (Daphnia magna; BNF avr. medium concentration 0.35 µg/L (methanol for dosing 0.063 g/L), 21 days): 77 and 63 and 72 and 59 and 68 | %offspring mortality (Daphnia magna; BNF avr. medium concentration 0.35 µg/L, 21 days): 0.25% | % inhibition, avr. (Daphnia magna; BNF avr. medium concentration 0.35 µg/L, 21 days, average of vessels): 4.4% | #average live offspring (Daphnia magna; BNF avr. medium concentration 0.35 µg/L, 21 days, per mother): 67 | #total live offspring (Daphnia magna; BNF avr. medium concentration 0.35 µg/L, 21 days, sum of all vessels): 402 | #offspring per mother, Total (Daphnia magna; BNF avr. medium concentration 0.77 µg/L (methanol for dosing 0.125 g/L), 21 days): 72 and 65 and 81 and 60 and 59 | %offspring mortality (Daphnia magna; [4]): 0.00% | % inhibition, avr. (Daphnia magna; BNF avr. medium concentration 0.77 µg/L, 21 days, average of vessels): 2.8% | #average live offspring (Daphnia magna; BNF avr. medium concentration 0.77 µg/L, 21 days, per mother): 68 | #dead offspring per mother, Total (Daphnia magna; [4]): 0 | #total live offspring (Daphnia magna; BNF avr. medium concentration 0.77 µg/L, 21 days, sum of all vessels): 409 | #offspring per mother, Total (Daphnia magna; BNF avr. medium concentration 1.55 µg/L (methanol for dosing 0.25 g/L), 21 days): 68 and 44 and 67 and 57 and 40 | %offspring mortality (Daphnia magna; BNF avr. medium concentration 1.55 µg/L, 21 days): 0.36% | % inhibition, avr. (Daphnia magna; BNF avr. medium concentration 1.55 µg/L, 21 days, average of surviving vessels): 21.3% | #average live offspring (Daphnia magna; BNF avr. medium concentration 1.55 µg/L, 21 days, per mother): 55 | #total live offspring (Daphnia magna; BNF avr. medium concentration 1.55 µg/L, 21 days, sum of surviving vessels): 276 | state of the mother animal (parental mortality) (Daphnia magna; BNF avr. medium concentration 1.55 µg/L, vessel 5, day 16): dead | #offspring per mother, Total (Daphnia magna; BNF avr. medium concentration 2.99 µg/L (methanol for dosing 0.5 g/L), 21 days): 46 and 49 and 38 and 47 and 60 and 51 | %offspring mortality (Daphnia magna; [5]): 0.00% | % inhibition, avr. (Daphnia magna; BNF avr. medium concentration 2.99 µg/L, 21 days, average of vessels): 30.8% | #average live offspring (Daphnia magna; BNF avr. medium concentration 2.99 µg/L, 21 days, per mother): 49 | #dead offspring per mother, Total (Daphnia magna; [5]): 0 | #total live offspring (Daphnia magna; BNF avr. medium concentration 2.99 µg/L, 21 days, sum of all vessels): 291 | EA50 (effective chemical activity) (Daphnia magna; EC50/subcooled liquid solubility, eq 1): 0.002 unitless | Classification according to REACH Annex XIII (Daphnia magna; chronic EC10 < 10 μg L^–1): toxic to aquatic life | CTLBB (critical target lipid body burden) (Daphnia magna; derived from chronic EC10 using eq 3): 1.7 μmol g^-1 octanol | wet weight of parent daphnids, change relative to control (Daphnia magna; 0.3 µg/L (Fig. S9)): -11% | wet weight of parent daphnids, change relative to control (Daphnia magna; 0.8 µg/L (Fig. S9)): -23% | wet weight of parent daphnids, change relative to control (Daphnia magna; 1.5 µg/L (Fig. S9)): -12% | wet weight of parent daphnids, change relative to control (Daphnia magna; 3.0 µg/L (Fig. S9)): -33% | wet weight of parent daphnids, change relative to control (Daphnia magna; 4.4 µg/L (Fig. S9)): -38% | Parent animal mortality (Daphnia magna; vessel 5, day 16, sheet Test 4-BNF, last treatment block): dead (reported as exposure related) | RQ (EC/PNEC) (D. magna): 21111 | SW (water solubility) ([2]; measured in previous work): 0.25 µg/mL | log KOW ([2]; n-octanol-water partition coefficient): 5.6 | log KOC ([2]; organic carbon-water partition coefficient): 4.98

From PMC12080252, “Daphnia magna as an Alternative Model for (Simultaneous) Bioaccumulation and Chronic Toxicity Assessment—Controlled Exposure Study Indicates High Hazard of Heterocyclic PAHs” (Environmental Science & Technology, 2025)
